In patent US20170196954A1, “PRIME-BOOST REGIMENS WITH A TLR4 AGONIST ADJUVANT AND A LENTIVIRAL VECTOR” (priority 2014, published 2017):

Assays:
HSV = details: continuous suppressive administration, early intervention; cited from earlier work
[1] = system: patients and healthy volunteers; details: over 900 patients and healthy volunteers
Description: GLA is a fully synthetic TLR4 agonist, which has been examined in over 900 patients and healthy volunteers as an adjuvant with NY-ESO-1 protein and with infectious agent antigens such as in flu vaccines. […] A higher Mug dose cohort is currently being examined in this Phase 1 trial.

In the case of CC(C)[C@H](N)C(=O)OCCOCn1cnc2c(=O)[nH]c(N)nc21 [Valacyclovir], the “reduction of HSV transmission” value (HSV) is listed as “less than 50%”.
For CCCCCCCCCCCCCC(=O)O[C@H](CCCCCCCCCCC)CC(=O)O[C@@H]1[C@@H](NC(=O)C[C@H](CCCCCCCCCCC)OC(=O)CCCCCCCCCCCCC)[C@H](OC[C@H]2O[C@H](O)[C@H](NC(=O)C[C@H](O)CCCCCCCCCCC)[C@@H](OC(=O)C[C@H](O)CCCCCCCCCCC)[C@@H]2O)O[C@H](CO)[C@H]1OP(=O)(O)O [GLA, glucopyranosyl lipid A], the safety profile [1] was “established safety profile”.
